In ChEMBL document CHEMBL3120136 (J Med Chem, 2014):
Values after ≈ are worked out from the molar mass of the structure shown.

What was measured:
Hepatitis C virus = assay: Antiviral activity against Hepatitis C virus infected in human HuH7 cells assessed as inhibition of HCV subgenomic replicon replication after 72 hrs by ELISA; format: functional, organism-based, Hepacivirus hominis, Huh-7; details: Hepatitis C virus, Huh-7, 72 h; read-out: EC50
[1] = Inhibition of Hepatitis C virus full-length NS3/4A protease assessed as quenched-fluorogenic RET-S1 substrate cleavage incubated for 10 mins prior to substrate addition by FRET analysis; parameters: species or system Hepacivirus hominis
Liver = assay: Ratio of AUC (0 to 24 hrs) in liver to plasma in Sprague-Dawley rat at 30 mg/kg, po by HPLC-MS/MS analysis; format: ADME, organism-based; parameters: dose 30 mg/kg, route oral; details: other tissue
[2] = AUC (0 to 24 hrs) in Sprague-Dawley rat plasma at 30 mg/kg, po by HPLC-MS/MS analysis; format: ADME, organism-based; parameters: time < 24 hr, dose 30 mg/kg, route oral
[3] = AUC (0 to 24 hrs) in Sprague-Dawley rat liver at 30 mg/kg, po by HPLC-MS/MS analysis; format: ADME, organism-based; parameters: time < 24 hr, dose 30 mg/kg, route oral
[4] = Plasma clearance in rat assessed as extraction ratio; format: ADME, organism-based; details: read-out: ERH
[5] = Efflux ratio of permeability from basolateral to apical side over apical to basolateral side in human Caco2 cells; format: ADME, cell-based; details: Caco-2
[6] = Permeability from apical to basolateral side of human Caco2 cells; format: ADME, cell-based; details: Caco-2, read-out: permeability
[7] = Aqueous solubility of the compound at pH 6.5 by modified shake-flask method; format: physicochemical
[8] = Aqueous solubility of the compound at pH 7.4 by modified shake-flask method; format: physicochemical
[9] = Aqueous solubility of the compound at pH 1.2 by modified shake-flask method; format: physicochemical
[10] = Metabolic stability in dog hepatocytes assessed as extraction ratio at 1 uM; format: ADME, cell-based, Canis lupus familiaris, Hepatocyte; details: read-out: ERH
[11] = Metabolic stability in cynomolgus monkey hepatocytes assessed as extraction ratio at 1 uM; format: ADME, cell-based, Macaca fascicularis, Hepatocyte; details: read-out: ERH
[12] = Metabolic stability in human hepatocytes assessed as extraction ratio at 1 uM; format: ADME, cell-based, Hepatocyte; details: read-out: ERH
[13] = Metabolic stability in rat hepatocytes assessed as extraction ratio at 1 uM; format: ADME, cell-based, Hepatocyte; details: read-out: ERH
[14] = Lipophilicity, log D of the compound; format: physicochemical; details: octanol/water
[15] = Ratio of drug level in liver to plasma in Sprague-Dawley rat at 30 mg/kg, po by HPLC-MS/MS analysis; format: ADME, organism-based; parameters: dose 30 mg/kg, route oral; details: liver and plasma
Rattus norvegicus = assay: Volume of distribution at steady state in Sprague-Dawley rat at 1 mg/kg, iv by HPLC-MS/MS analysis; details: in vivo

EC50 (Hepatitis C virus): 17.5 nM
IC50 [1]: 2.2 nM
Ratio AUC (Liver): 4608
AUC(0-t) at 24 h [2]: 0.06 µg·h/mL
AUC(0-t) at 24 h [3]: 276 µg·h/mL
hepatic extraction ratio [4]: > 1
efflux ratio [5]: > 2
Papp A→B [6]: < 2 ×10⁻⁶ cm/s
solubility thermodynamic [7]: 812 µg/mL (≈ 1120 µM)
solubility thermodynamic [8]: > 1000 µg/mL
solubility thermodynamic [9]: 0.5 µg/mL (≈ 0.687 µM)
hepatic extraction ratio at 1 µM [10]: 0.36
hepatic extraction ratio at 1 µM [11]: 0.53
hepatic extraction ratio at 1 µM [12]: 0.49
hepatic extraction ratio at 1 µM [13]: 0.05
logD [14]: 2.2
Kp [15]: > 1000
Vdss (Rattus norvegicus): 5.982 L/kg
Compound: CC(C)(C)OC(=O)N[C@H]1CCCCC/C=C\[C@@H]2C[C@@]2(C(=O)NS(=O)(=O)C2CC2)NC(=O)[C@@H]2C[C@@H](OC(=O)N3CCc4ccccc4C3)CN2C1=O
